Experimental data as given in US9642787B2, “Method of inhibiting copper deposition on hair” (The Procter & Gamble Company, priority 2014, dated 2017).

What was measured:
[1] = Formation Constant (Log KML) of metal chelant complex with copper; type: physicochemical; conditions: formation constant for copper, concentrations in mol/dm^3, logarithm
From the text: (§1) The Formation Constant of a metal chelant interaction is defined as: [formula] where: [ML]=concentration of metal ligand complex at equilibrium [M]=concentration of free metal ion [L]=concentration of free ligand in a fully deprotonated form KML=formation constant for the metal chelant complex. All concentrations are expressed in mol/dm^3. Formation Constants are conveniently expressed as logarithms.

[2] = Formation Constant (Log KML) of metal chelant complex with calcium; type: physicochemical; conditions: formation constant for calcium, concentrations in mol/dm^3, logarithm
From the text: as §1

Log KML Cu [1] | Log KML Ca [2] | Structure (SMILES)
8.1 | 1.3 | C[C@H](N)C(=O)O [Alanine]
7.8 | – | NC(=O)C[C@H](N)C(=O)O [Asparagine]
18.4 | 4.6 | O=C(O)CC(NCCNC(CC(=O)O)C(=O)O)C(=O)O (centres unmarked) [EDDS, ethylenediamine-N,N′-disuccinic acid]
7.7 | – | NC(=O)CC[C@H](N)C(=O)O [Glutamine]
8.2 | 1.1 | NCC(=O)O [Glycine]
10.2 | 1.2 | N[C@@H](Cc1c[nH]cn1)C(=O)O [Histidine]
8.8 | – | O=C(O)[C@@H]1CCCN1 [Proline]
7.9 | 1.4 | N[C@@H](CO)C(=O)O [Serine]

Structure (SMILES) | Log KML Cu [1] | Log KML Ca [2]
N[C@@H](Cc1c[nH]c2ccccc12)C(=O)O [Tryptophan] | 8.2 | –
